Experiments:
[1] = tested on: normal mice and mice with type 2 DM; test: Intraperitoneal glucose tolerance test (IPGTT); type: in vivo, ICR mice; settings: normal and type 2 DM mice; borapetoside A 0.1, 1 and 10 mgkg^−1; metformin
Description: (§1) After three days of acclimatization, the mice had free access to a standard rodent chow (normal mice), a standard rodent chow after single […] streptozotocin (STZ) intraperitoneal injection (T1DM mice), and a fat-rich chow diet and fructose-sweetened water (T2DM mice) for 4 weeks. The induction of Type 1 DM was assessed and confirmed when the mice had plasma glucose levels ≧350 mgdL^−1, accompanied with polyuria, hyperphagia and decreased body weight. The induction Type 2 DM in the mice was assessed by measuring fasting plasma glucose levels and confirmed when plasma glucose level was ≧150 mgdL^−1 after the 4-week induction. The animals were assigned randomly into three groups, with seven animals in each group. In group I, the mice were treated with vehicle, 2% DMSO in normal saline, as the negative control. In group II, the mice were intraperitoneally treated with borapetoside A (0.1-10 mgkg^−1). In group Ill, the positive control, the mice received intraperitoneally metformin (300 mgkg^−1; Sigma Chemical Co., St. Louis, Mo., U.S.A.) or insulin (0.5 IUkg^−1; Insulin Actrapid® HM; Novo Nordisk, Denmark). In the acute study, mice under anesthesia received a single intraperitoneal administration of borapetoside A, negative control, or positive control. In the subacute study, mice received intraperitoneal administrations of borapetoside A, vehicle, or insulin twice a day for seven days.
(§2) Blood samples were collected from the orbital vascular plexus of the mice under anesthesia. Blood samples were then centrifuged at 13000 rpm for 5 min, and the plasma samples were collected and kept on ice prior to the assay. The plasma glucose concentration was measured by Glucose Kit Reagent (Biosystems S. A., Barcelona, Spain) following the manufacturer's instructions, and the insulin levels were estimated using mouse insulin ELISA kit (Mercodia AB, Uppsala, Sweden).
The mice were maintained under anesthesia throughout the procedure. Glucose (2.0 gkg^−1) was administered intraperitoneally. Blood samples were collected from the orbital vascular plexus at 0, 30, 60, 120 min. The concentrations of the plasma glucose were measured, and the values of AUC were calculated accordantly.

[2] = tested on: normal, T1DM and T2DM mice; test: Plasma insulin levels before and after treatment; type: in vivo, ICR mice; settings: for Plasma insulin Before-treatment: metformin 300 mgkg^−1 group; for Plasma insulin After-treatment: metformin 300 mgkg^−1 i.p.
Description: The 4-week-old male ICR mice were purchased from the Animal Center of the College of Medicine, National Taiwan University (Taipei, Taiwan) with delicate humane care. This animal study was conducted by following the University ethical guidelines and the ‘Guide for the Care and Use of Laboratory Animals’ published by the US National Institutes of Health (NIH publication no. 85-23, revised 1996). The animal experiments were approved by the Institutional Animal Care and Use Committee (IACUC) of the National Taiwan University (IACUC No. 20110073). Animals were housed in a room at the constant temperature, 22±1° C., with 12 hours light and dark cycles.
as §1, §2

## CN(C)C(=N)N=C(N)N [Metformin, metformin, reference compound]
[1]
  increase of plasma glucose level at 30 min in IPGTT, compared to the vehicle group: significantly suppressed
[2]; Normal mice
  Plasma insulin Before-treatment: 66.6 ± 1.3 pmol/L
  Plasma insulin After-treatment: 72 ± 3.1 pmol/L
[2]; T1DM mice
  Plasma insulin Before-treatment: 22.4 ± 0.4 pmol/L
  Plasma insulin After-treatment: 22.7 ± 0.3 pmol/L
[2]; T2DM mice
  Plasma insulin Before-treatment: 148.1 ± 15.2 pmol/L
  Plasma insulin After-treatment: 182.0 ± 27.7 pmol/L
